ChEMBL document CHEMBL1275492, “In vitro activity of ceftobiprole against pathogens from two phase 3 clinical trials of complicated skin and skin structure infections” (2008)
In brackets after ≈: the same amount, converted by molar mass.

Legend:
Assay type in all cases: functional
[1] = system: Prevotella; assay: Antibacterial activity against Prevotella spp. obtained from complicated skin and skin structure infections by agar dilution method
[2] = system: Veillonella; assay: Antibacterial activity against Veillonella spp. obtained from complicated skin and skin structure infections by agar dilution method
[3] = system: Bacteroides fragilis; assay: Antibacterial activity against Bacteroides fragilis obtained from complicated skin and skin structure infections by agar dilution method

MIC [1] [µg/mL] | MIC [2] [µg/mL] | MIC [3] [µg/mL] | Compound
≤ 1 | ≤ 1 | ≤ 1 | CO[C@@]1(NC(=O)Cc2cccs2)C(=O)N2C(C(=O)O)=C(COC(N)=O)CS[C@@H]21 [CEFOXITIN]
0.5 (≈ 2.92 µM) | 0.5 (≈ 2.92 µM) | 0.5 (≈ 2.92 µM) | Cc1ncc([N+](=O)[O-])n1CCO [METRONIDAZOLE]
